Measurements from PMC11732138, “Gold complex compounds that inhibit drug-resistant Staphylococcus aureus by targeting thioredoxin reductase” (Frontiers in Antibiotics, 2023).
Where two headings read alike, the source gives them in different places.

Experiments:
[1] = system: human primary hepatocytes; experiment: Human primary hepatocytes toxicity; format: cell-based; details: 24 h, WST1
Description: Human primary hepatocytes toxicity. Cryopreserved human primary hepatocytes were purchased from the Cell Resource Core at Massachusetts General Hospital (Boston, MA, USA). Collagen sandwiched configuration was used to culture the thawed cells in 24-well plates. The 24-well plates were coated with rat tail collagen type I (Cell Recourse Core, MGH) and incubated for an hour before 4 x 10^5 live cells were plated and incubated at 37°C with 5% CO2 for 1 h to allow cells to attach to the collagen gel. After incubation, the medium was removed along with dead cells, and the remaining cells received 0.5 mL of hepatocyte culture medium containing Dulbecco’s modified Eagle’s medium (DMEM) media supplemented with 10% FBS, 0.5 U/mL insulin, 14 ng/mL glucagon, 20 ng/mL EGF, 7.5 µg/mL hydrocortisone and 200 U/mL penicillin-streptomycin. The cell cultures were incubated in a humidified, 5% CO2 incubator at 37°C. After 24 h, a top layer of collagen gel was poured over the hepatocytes attached to collagen on the bottom of the plate, making a sandwich model. After 1 h, investigational compounds at the designated concentrations were added and incubated for 24 h. Post incubation, hepatocyte WST1 (Roche, Basel, Switzerland) was added and incubated for 4 h. Cell staining was measured by recording the absorbance at 420 nm, measured using a Vmax microplate reader (Molecular Devices, San Jose, CA, USA.), and data were plotted using GraphPad Prism. Cells were tested in triplicate.

[2] = Compound solubility in PBS; format: physicochemical; details: aqueous buffer
Description: Compound solubility in PBS. Compound solubility was measured in PBS. Briefly, serial dilutions of test compounds were prepared in DMSO at 100x the final concentration. Test compound solutions were diluted 100-fold into PBS in a 96-well plate and mixed. After 2 h, the presence of precipitate was detected by measuring absorbance at 540 nm.

human erythrocytes = details: tested range 256 to 0.125 μg/mL
Description: The plate was incubated for 1h at 37°C. After incubation, the plate was centrifuged at 1000 g for 5 min. Then, 100 µL of supernatant was transferred to a fresh 96-well microtiter well plate and the OD was measured at 540 nm. The assay was conducted in triplicate and the mean and SD values were reported.

S. aureus MW2 [3] = experiment: Time to kill assay; format: cell-based, Staphylococcus aureus; details: 4 × MIC, 4 h; bactericidal = 3-log10-CFU/mL reduction
Description: S. aureus MW2, a methicillin-resistant S. aureus (MRSA) isolate, was used to determine the bacteriostatic/bactericidal properties of test compounds, as previously described ([Rajamuthiah et al., 2015]). Assays were carried out as 2 biological replicates with n=3 for each in 24 well plates (BD Biosciences, Franklin Lakes, NJ, USA). Briefly, S. aureus MW2 cells were streaked on TSB agar from a frozen glycerol stock, and after overnight incubation, a single colony was inoculated on 2 mL of TSB and incubated at 37°C with agitation. The overnight culture of S. aureus MW2 was centrifuged at 4000 g for 5 min and then washed twice with PBS and collected through centrifuged at 4000 g for 5 min. The PBS was discarded and cells were suspended in TSB and aliquoted into a 24-well plate at a density of 10^8 cells/mL as a 1 mL volume. Test compounds were added such that the final concentration was 4 × MIC, and the cultures were incubated at 37°C with agitation. At designated time intervals, 5 μL aliquots from each test condition were serially diluted in TSB and plated onto TSA (BD Biosciences, Franklin Lakes, NJ, USA). CFUs were enumerated after overnight incubation at 35°C, and data were plotted using GraphPad Prism 9.0 (San Diego, CA, USA) to report the means and standard deviation of growth as measured by CFU/mL.

HKC cells = experiment: Immortalized cell line toxicity (WST-1), HKC; format: cell-based, human; details: HKC kidney cell line, 24 h
Description: (§1) A hepatic cell line (HepG2), lung carcinoma cell line (A549), and kidney cell line (HKC) were used to test the cytotoxicity of investigational compounds. Cells were grown in DMEM (ThermoFisher Scientific, Waltham, MA, USA) supplemented with 10% fetal bovine serum (FBS) (ThermoFisher Scientific, Waltham, MA, USA) and 1% penicillin/streptomycin (ThermoFisher Scientific, Waltham, MA, USA) and maintained at 37°C in 5% CO2. 2.5x10^4 cells in 100 μL of DMEM with 10% FBS were added to wells of 96-well plates 24 h prior to the experiments. Compounds were serially diluted in […], and 100 μL antibiotic-free DMEM was added to the monolayer and incubated at 37°C in 5% CO2 for 24 h. At 2 h before the end of the incubation period, 10 μL of 2-(4-iodophenyl)-3-(4-nitrophenyl)-5-(2, 4-disulfophenyl)-2H-tetrazolium (WST-1) solution (Roche, Mannheim, Germany) was added to each well. WST-1 reduction was monitored at 450 nm using a Vmax microplate reader. Assays were performed in triplicate, and the percentage survival was calculated by comparing the compound-treated wells to the DMSO vehicle control wells.

[4] = Compound solubility in DMSO; format: physicochemical; details: organic solvent or mixture, turbidity at 540 nm, read-out: concentration up to which the compound remained soluble in DMSO
Description: To test compound solubility, stock solutions were made in triplicate at 50 mg/mL in DMSO. Two-fold serial dilutions of the test compounds were prepared at 50 μL volume in a 96-well assay plate and were kept in the incubator for 1 h. After incubation, the absorbance was measured at 540 nm using a Vmax microplate reader (Molecular Devices, Sunnyvale, CA, USA.) to detect turbidity.

HepG2 cells = experiment: Immortalized cell line toxicity (WST-1), HepG2; format: cell-based, human; details: HepG2 liver cell line, 24 h
Description: as §1

hERG channel [5] = biological target: T1, hERG channel (Homo sapiens, UniProt Q12809); experiment: hERG measurement (QPatch HTX patch clamp)
Description: (§4) QPatch HTX system (Sophion Biosciences A/S, Ballerup, Denmark) was used to examine hERG signaling (Cyprotex, Watertown, MA, USA). The system was primed with appropriate extracellular (NaCl, KCl, CaCl2, MgCl2, D-glucose, HEPES, pH 7.4) and intracellular (KCl, MgCl2, EGTA, MgATP, HEPES, pH 7.2) solutions before conducting the study in a 48 well plate (QPlate, Sophion Biosciences A/S, Ballerup, Denmark). All cell suspensions, buffers, and test compound solutions were kept at room temperature during the experiment. HEK293 cells stably transfected with hERG cDNA were washed and positioned into each well (recording chamber) of the QPlate. The QPatch system follows the general principles of conventional whole-cell patch-clamping: a high resistance seal is formed between the patch electrode, and an individual cell, the membrane across the electrode tip is then ruptured, and the whole-cell patch-clamp configuration is established. The standard voltage profile was as follows: step from -80 mV to –50 mV for 200 ms, +20 mV for 4.8 s, step to -50 mV for 5 s, then stepped to the holding potential of -80 mV. The step from -80 mV to the test command (+20 mV) results in an outward current (i.e., current flows out of the cell), and the step from the test command (+20 mV) to -50 mV results in the tail current (the tail current represents deactivation of the current overtime). Compound dilutions were prepared by diluting a DMSO solution (default 10 mM), followed by dilution into an extracellular buffer such that the final concentrations tested were 0.1, 1, and 10 μM (final DMSO concentration 0.1%). Perfusion solutions contained 0.05% Pluronic F-68 and were stored at room temperature for the duration of the experiment each day. The voltage protocol was run and recorded continuously during the experiment. Cells were treated with a vehicle for 3 min (i.e., 0.1% DMSO) followed by three increasing test substance concentrations (0.1, 1, and 10 μM). The test compounds were applied in triplicate at each concentration and tested in at least 2 cells (biological replicates). […]

[6] = system: renal proximal tubule epithelial cells; experiment: Renal proximal tubule epithelial cell toxicity; format: cell-based, human; details: renal proximal tubule epithelial cells
[7] = Immortalized cell line toxicity (WST-1), the three cell lines together; format: cell-based; details: human, hkc, hepg2, a549 cells; read-out: toxicity to cell lines as multiple of the MIC
Description: as §1

A549 cells = experiment: Immortalized cell line toxicity (WST-1), A549; format: cell-based, human; details: A549 lung carcinoma cell line, 24 h
Description: as §1

S. aureus TrxR = S. aureus TrxR (Staphylococcus aureus, UniProt P66011); experiment: TrxR (TrxB) enzymatic assay, DTNB to TNB conversion
Description: TrxR specific inhibitory activity was evaluated using 40 μL of S. aureus TrxR enzyme (0.5 μg/μL) per 200 mL of the reaction mixture for 15 minutes, comparing auranofin to other sulfur-containing compounds (all tested at 10 μg/mL), including known anti-S. aureus compounds.
For the screening assay, diluted TrxR assay buffer (Cayman Chemical, Ann Arbor, MI) (100 μL) was mixed with the investigational compounds (20 μL) in a 96 well-plate format and combined with Sa-TrxB (40 μL; 0.5 μg/mL), DTNB (20 μL) and NADPH (20 μL). The reaction entailed combining NADPH and Sa-TrxB with DTNB, which was converted to TNB, producing a yellow color.

E. faecium ATCC E007 = experiment: Broth microdilution MIC, E. faecium; format: cell-based, Enterococcus faecium; details: E. faecium ATCC E007
Description: (§2) In vitro antibiotic susceptibilities were determined using the broth microdilution assay established by the Clinical and Laboratory Standards Institute ([Clinical and Laboratory Standards Institute, 2012]). Broth microdilution assays were carried out with 2 biological replicates, each in triplicate, Mueller–Hinton broth (MHB; BD Biosciences, Franklin Lakes, NJ, USA) with a total assay volume of 100 μL in 96-well plates (BD Biosciences, Franklin Lakes, NJ, USA). Two-fold serial dilutions of compounds were prepared at a range of 0.01– 64 μg/mL in 50 μL of MHB. The initial bacterial inoculum was adjusted to OD600 0.06, 50 μL was, added to the test compounds, and then incubated at 35°C for 18 h. Post incubation, OD600 was measured using a Vmax microplate reader (Molecular Devices, San Jose, CA), and the lowest concentration of test compound that suppressed bacterial growth was reported as the MIC. Broth culture from the MIC assay (10 μL) was plated on Mueller–Hinton agar (BD Biosciences, Franklin Lakes, NJ, USA), and colony-forming units (CFUs) were enumerated after overnight incubation at 37°C.

P. aeruginosa PA14 = experiment: Broth microdilution MIC, P. aeruginosa; format: cell-based, Pseudomonas aeruginosa; details: P. aeruginosa PA14
Description: as §2

K. pneumoniae ATCC 77326 = experiment: Broth microdilution MIC, K. pneumoniae; format: cell-based, Klebsiella pneumonia; details: K. pneumoniae ATCC 77326
Description: as §2

Enterobacter (EAE 2625) = experiment: Broth microdilution MIC, Enterobacter; format: cell-based, Enterobacter spp.; details: Enterobacter (EAE 2625)
Description: as §2

S. aureus MW2 [8] = experiment: Diamide assay (CFU reduction); format: cell-based, Staphylococcus aureus; details: compound 0.5 μg/mL + 5 mM diamide, 3 h
Description: An overnight culture of S. aureus MW2 was inoculated in tryptic soy broth (TSB) media and grown with agitation. The cells were centrifuged, washed with PBS, and diluted to an OD600 0.4 (10^8 CFU/mL) in PBS. The cells were then treated with auranofin (0.5 µg/mL), AU1 (0.5 µg/mL), AU5 (0.5 µg/mL), and diamide (5 mM and 10 mM) alone or in combinations for 3 h at 37°C. The cells were then serially diluted and plated on tryptic soy agar (TSA) media and incubated at 37°C for 24 h. Colonies that grew on plates were enumerated to determine the effect of the drug and diamide on S. aureus.

hERG channel [9] = biological target: T1, hERG channel
Description: as §4

[10] = system: S. aureus MW2 biofilm formation; experiment: Biofilm formation inhibition; format: cell-based, Staphylococcus aureus; details: 24 h, Alamar Blue
Description: (§3) Diluted bacterial cells were added to 100 μL of test compounds (serially diluted 16 to 0 μg/mL) and incubated for 24 h to assess the biofilm formation inhibition. For the disruption of matured biofilm, diluted cells in 100 μL were added to the 96-well plate and incubated for 24 h with no agitation. […] Biofilm assays were completed in triplicate.

[11] = system: intracellular free thiols of S. aureus MW2; experiment: Thiol depletion assay; format: cell-based, Staphylococcus aureus; details: treated vs untreated cell lysate
Description: S. aureus MW2 was treated for 15 min with the indicated (0.125, 0.25, 0.5, or 0.75 µg/mL) concentrations of auranofin, AU1, AU5, or ampicillin. After treatment bacteria were washed twice in PBS and then resuspended in 100 mM potassium phosphate, monobasic, pH 7.4, containing 1 mM ethylenediaminetetraacetic acid to promote lysis. Cells were incubated in the lysis solution for 30 min at 60°C and then vortexed briefly. The solution was centrifuged at 13,000 g for 10 min to collect cell debris. Lysate was collected and 50 μL was transferred to a 96-well plate. Thiols were quantified using the Fluorometric Thiol assay kit following the manufacturer’s instructions (Millipore Sigma, St. Louis, MO, USA). The fluorescence intensity was measured after a 30 min incubation time at λex = 490/λem = 535 nm using a Vmax plate reader.

[12] = set-up: method as in Kean et al., 1997; details: auranofin-treated patients ref Kean et al., 1997; cited from earlier work
H. pylori 49503 = experiment: Broth microdilution MIC, H. pylori; format: cell-based, Helicobacter pylori; details: H. pylori 49503
Description: as §2

mature S. aureus biofilm = experiment: Disruption of mature biofilm; format: cell-based, Staphylococcus aureus; details: preformed 24 h biofilm, Alamar Blue
Description: as §3

A. baumannii 17978 = experiment: Broth microdilution MIC, A. baumannii; format: cell-based, Acinetobacter baumannii; details: A. baumannii 17978
Description: as §2

S. aureus MW2 [13] = experiment: Broth microdilution MIC, S. aureus MW2; format: cell-based, Staphylococcus aureus; details: S. aureus MW2 (MRSA), broth microdilution, 18 h
Description: as §2

Chain of S. aureus TrxR (P66011 whole entry): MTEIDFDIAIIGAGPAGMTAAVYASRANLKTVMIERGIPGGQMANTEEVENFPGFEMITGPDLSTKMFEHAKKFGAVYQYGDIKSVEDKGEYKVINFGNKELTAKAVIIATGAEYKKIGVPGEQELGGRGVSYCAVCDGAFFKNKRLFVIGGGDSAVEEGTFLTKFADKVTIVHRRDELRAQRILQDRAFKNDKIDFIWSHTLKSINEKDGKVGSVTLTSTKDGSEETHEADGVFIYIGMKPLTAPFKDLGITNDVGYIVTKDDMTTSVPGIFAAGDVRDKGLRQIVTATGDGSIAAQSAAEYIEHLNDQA
T1 sequence (Q12809 whole entry): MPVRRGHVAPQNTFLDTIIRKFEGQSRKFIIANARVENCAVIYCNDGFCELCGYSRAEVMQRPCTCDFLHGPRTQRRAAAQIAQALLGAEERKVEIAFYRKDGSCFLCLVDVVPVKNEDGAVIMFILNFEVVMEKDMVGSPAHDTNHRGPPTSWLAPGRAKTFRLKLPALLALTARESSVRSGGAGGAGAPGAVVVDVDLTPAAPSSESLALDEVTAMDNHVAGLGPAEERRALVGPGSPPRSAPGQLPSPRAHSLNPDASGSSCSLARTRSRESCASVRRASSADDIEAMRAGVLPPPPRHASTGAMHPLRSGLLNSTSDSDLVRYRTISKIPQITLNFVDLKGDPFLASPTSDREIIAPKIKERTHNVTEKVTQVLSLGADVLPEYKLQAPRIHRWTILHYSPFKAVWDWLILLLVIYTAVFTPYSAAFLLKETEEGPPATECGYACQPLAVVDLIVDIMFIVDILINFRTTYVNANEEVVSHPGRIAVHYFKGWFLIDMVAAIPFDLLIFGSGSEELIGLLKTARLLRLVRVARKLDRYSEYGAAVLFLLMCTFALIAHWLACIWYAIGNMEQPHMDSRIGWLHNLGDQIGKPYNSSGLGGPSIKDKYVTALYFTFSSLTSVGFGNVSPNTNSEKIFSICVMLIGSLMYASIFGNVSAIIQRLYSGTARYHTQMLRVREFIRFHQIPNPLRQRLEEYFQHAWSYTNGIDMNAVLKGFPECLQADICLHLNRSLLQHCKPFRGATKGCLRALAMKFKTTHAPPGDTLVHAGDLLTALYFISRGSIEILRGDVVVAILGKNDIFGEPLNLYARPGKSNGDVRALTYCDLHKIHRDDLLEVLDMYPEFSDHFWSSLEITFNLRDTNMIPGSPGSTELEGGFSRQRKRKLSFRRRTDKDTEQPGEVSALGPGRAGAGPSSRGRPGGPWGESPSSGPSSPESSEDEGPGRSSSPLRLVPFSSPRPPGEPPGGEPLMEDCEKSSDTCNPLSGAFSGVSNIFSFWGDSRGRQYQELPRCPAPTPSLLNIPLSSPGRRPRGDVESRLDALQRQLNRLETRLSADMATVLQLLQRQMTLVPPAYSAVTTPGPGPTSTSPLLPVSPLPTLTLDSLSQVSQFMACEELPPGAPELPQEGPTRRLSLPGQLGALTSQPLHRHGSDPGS

CC(C)(C)c1ccc([S-])cc1.CCP(CC)CC.[Au+] [AU1]
LD50 [1]: approximately 3 μg/mL | solubility at 2 h ([2]; PBS, 2 Hour, highest concentration with no detectable precipitate, read-out: Solubility Limit): 3.13 µM | solubility at 2 h ([2]; pbs, read-out: Solubility in PBS converted to mass concentration): 1.49 µg/mL | hemolysis (in words) (human erythrocytes): did not cause hemolysis within the tested range | bactericidal versus bacteriostatic nature (time-to-kill kinetics) (S. aureus MW2 [3]): bacteriostatic | LD50 (HKC cells): < 2 µg/mL | solubility at 1 h [4]: ≥ 50 µg/mL | LD50 (HepG2 cells): approximately 3 μg/mL | IC50 (hERG channel [5]): > 10 µM | LD50 [6]: 1.5 µg/mL | LD50 as multiple of the MIC [6]: 12 X MIC | selectivity ratio at 24 h [7]: 16 to 32 | LD50 (A549 cells): approximately 4 μg/mL | IC50 (S. aureus TrxR): 0.5 µM

CC(=O)OC[C@H]1O[C@@H]([S-])[C@H](OC(C)=O)[C@@H](OC(C)=O)[C@@H]1OC(C)=O.CCP(CC)CC.[Au+] [Auranofin]
LD50 [1]: approximately 8 μg/mL | MIC (E. faecium ATCC E007): 0.5 µg/mL | MIC (P. aeruginosa PA14): >32 µg/mL | MIC (K. pneumoniae ATCC 77326): >32 µg/mL | MIC (Enterobacter (EAE 2625)): >32 µg/mL | log CFU reduction in combination with diamide (S. aureus MW2 [8]): 2.1 log CFU | IC50 (hERG channel [9]): 9.68 µM | LD50 as multiple of the MIC [6]: 6 X MIC | concentration that inhibited biofilm formation (P<0.01) [10]: 0.125 µg/mL | impact on free thiols (in words) [11]: a reduction was observed | patients with proteinuria [12]: 5% | MIC (H. pylori 49503): 0.25 µg/mL | concentration that significantly reduced mature biofilm (mature S. aureus biofilm): 0.125 µg/mL | MIC (A. baumannii 17978): 32 µg/mL | MIC (S. aureus MW2 [13]): 0.25 µg/mL | TrxR enzymatic inhibitory activity (in words) (S. aureus TrxR; DTNB to TNB conversion): Measurable activity reduction | OD420 in TrxR enzymatic assay (S. aureus TrxR; subscreen, after a 30 min incubation period, DMSO 0.483 ± 0.121): 0.295 ± 0.012
